From patent publication US12583818B2 (DAEGU-GYEONGBUK MEDICAL INNOVATION FOUNDATION, priority 2020, dated 2026) come the findings set out here.

SMILES strings stand for the structures. Like-named read-outs stand apart in the source and are kept apart here.

The test system of test [1] is MCF7-SP cells (breast cancer stem cells). Description: Sphere cell viability of MCF7-SP cells (Cell-titer Glo). The format is cell-based. As to the method:
(§1) In order to confirm the inhibitory effect of the compound represented by formula 1 according to the present invention on the growth of MCF7, MCF7-SP, A2780 or A2780-SP cells, the following experiment was performed, and the results are shown in Tables 4 and 5 below.
On the other hand, MCF7-SP cells (breast cancer stem cells) were plated in an Ultra-Low Attachment round bottom 96-well plate (corning) at the density of 1,500 viable cells per well, and cultured in cancer stem cell medium. The cancer stem cell medium is composed of the neurobasal medium supplemented with 20 ng/ml of bFGF, 10 ng/ml of EGF, 2.5 […], HEPES, Glutamax and B27.
On the next day of culture, the cells were treated with the compound of Example 71, 76, 80, 84, 92, 99, 100 or 119, followed by culture for 8 days. The medium containing the compound was added thereto once again on the 4th day. Sphere cell viability was evaluated by Cell-titer Glo (Promega, WC, USA), and luciferase activity was detected using a Tecan plate reader (Biocompare, USA).

For test [2], the system named is A2780-SP cells (ovarian cancer stem cells). Description: Sphere cell viability of A2780-SP cells (Cell-titer Glo). The format is cell-based. In a few lines:
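A2780-SP ovarian cancer stem cells grown as spheres in ultra-low-attachment wells (1,500 cells/well) in neurobasal stem-cell medium with bFGF, EGF, B27. Compound added the day after plating, re-dosed on day 4, 8-day culture total; viability by CellTiter-Glo luminescence.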

Test [3] has as its system MDA-MB 231 triple negative breast cancer cell line. Description: MDA-MB 231 protein expression inhibition (Western blotting, cycline D1 vs Vinculin). The test is classed as cell-based. Conditions: Homo sapiens, compound 10 μM, 72 hours, cycline D1 Western blot, read-out: MBA-MB-231 (amount of the protein compared to the DMSO-treated control group). The gist of the method: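 MDA-MB-231 cells were treated with compound at 10 μM (control 0.1% DMSO) for 72 hours. Western blotting of 10 μg lysate protein probed cyclin D1 against vinculin, with ImageJ quantification. Expression was graded A–D relative to the DMSO control.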

For test [4], the system named is MCF7 cells (breast cancer cells). Description: Cell viability of MCF7 cells (Cell-titer Glo). The format is cell-based. Conditions: Homo sapiens. As to the method: as §1
MCF7 cells (breast cancer cells) were plated in a 96-well plate at the density of 3000 viable cells per well, and cultured in DMEM/High glucose medium supplemented with 10% FBS and 1% penicillin/streptomycin.
On the next day of culture, the cells were treated with the compound of Example 71, 76, 80, 84, 92, 99, 100 or 119, followed by culture for 3 days. Cell viability was evaluated by Cell-titer Glo (Promega, WC, USA), and luciferase activity was detected using a Tecan plate reader (Biocompare, USA).

Another test deals with T1, Pin1 (Homo sapiens, UniProt Q13526).
T1 construct: purchased Anaspec
Description: Evaluation of Pin1 enzyme inhibitory activity (Sensolyte Green Pin1 assay kit). The test is classed as biochemical. The gist of the method:
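Pin1 activity was measured with a fluorogenic kit assay (Sensolyte Green) using substrate prepared at 1 μM and protein at 50 μg/ml, both pre-mix concentrations. Compound working solutions were 100, 10, 1 or 0.1 μM, and reactions ran 2 h at room temperature in the dark, read at 490/520 nm. Inhibition was graded A–D by concentration.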

For test [5], the system named is A2780 cells (ovarian cancer cells). Kind of test: Cell viability of A2780 cells (Cell-titer Glo). The test is classed as cell-based. Conditions: Homo sapiens. The gist of the method:
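A2780 ovarian cancer cells seeded at 3000 viable cells/well in RPMI-1640 with 10% FBS, dosed the next day and grown 3 days. Viability measured by Cell-titer Glo luminescence.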

Where [6] appears, read: 192 h, sphere cell viability, culture for 8 days, read-out: MCF7-SP.
Where [7] appears, read: 192 h, sphere cell viability, culture for 8 days, read-out: A2780-SP.
Where [8] appears, read: 72 h, cell viability, culture for 3 days, read-out: MCF7.
[9] abbreviates: Table 2, read-out: concentration at which Pin1 inhibitory activity was exhibited.
[10] abbreviates: concentration at which the Pin1 enzyme activity is inhibited, 2 hours at room temperature, fluorescence 490 nm/520 nm, read-out: Pin 1 inhibition.
Setting [11] is: 72 h, cell viability, culture for 3 days, read-out: A2780.
The mark [12] stands for this setting: A2780, Table 5, read-out: A2780 cell concentration.
Where [13] appears, read: text summary of Table 4, read-out: MCF7-SP cell concentration.
Setting [14] is: Table 5, read-out: the concentration (second list of b710, cell line not named; matches A2780-SP column).
Where [15] appears, read: MCF7, text summary of Table 4, read-out: MCF7 cell concentration.

T1 sequence (Q13526 whole entry): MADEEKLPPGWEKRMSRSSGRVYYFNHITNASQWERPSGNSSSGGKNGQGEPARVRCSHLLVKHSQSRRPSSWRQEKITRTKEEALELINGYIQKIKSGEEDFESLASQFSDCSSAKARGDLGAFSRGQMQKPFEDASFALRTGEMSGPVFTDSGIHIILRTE

Regarding `CN1CCN(CCCNc2ccc(S(=O)(=O)NCCCc3c[nH]c4ccc(Cl)cc34)cc2)CC1` [Example 98, N-(3-(5-chloro-1H-indole-3-yl)propyl)-4-((3-(4-methylpiperazine-1-yl)propyl)amino)benzenesulfonamide], the IC50 in test [1] (setting [6]) was over 10 µM; in test [2] (setting [7]), 1 to 10 µM; in test [4] (setting [8]), over 10 µM; on Pin1 (setting [9]), under 1 µM; at Pin1 (setting [10]), under 1 µM; in test [5] (setting [11]) it was 1 to 10 µM. Further, in test [5] (setting [12]), the IC50 is under 10 µM. In test [3], the activity at 10 µM lay in the range of 0 to 35%.
Consider `O=S(=O)(NCCCc1c[nH]c2ccc(Cl)cc12)c1ccc(CCCCC2CCNCC2)cc1` [Example 99, N-(3-(5-chloro-1H-indole-3-yl)propyl)-4-(4-(piperidine-4-yl)butyl)benzenesulfonamide], for which the IC50 in test [1] (setting [6]) was 1 to 10 µM; in test [1] (setting [13]), under 10 µM; in test [2] (setting [7]), under 1 µM; in test [2] (setting [14]), under 1 µM; in test [4] (setting [8]) it was 1 to 10 µM; in test [4] (setting [15]) it was under 10 µM. The IC50 on Pin1 (setting [9]) was under 1 µM; on Pin1 (setting [10]), under 1 µM; in test [5] (setting [11]) it was 1 to 10 µM; in test [5] (setting [12]), under 10 µM. Moreover, the activity at 10 µM in test [3] was 0 to 35%.
Regarding `CN1CCN(c2cccc(Oc3ccc(S(=O)(=O)NCCCc4c[nH]c5ccc(Cl)cc45)cc3)c2)CC1` [Example 118, N-(3-(5-chloro-1H-indole-3-yl)propyl)-4-(3-(4-methylpiperazine-1-yl)phenoxy)benzenesulfonamide], the IC50 in test [1] (setting [6]) was 1 to 10 µM; in test [1] (setting [13]), under 10 µM; in test [2] (setting [7]) it was under 1 µM; in test [2] (setting [14]), under 1 µM; in test [4] (setting [8]), 1 to 10 µM; in test [4] (setting [15]), under 10 µM. Also, the results for the IC50 (on Pin1 (setting [9]); at Pin1 (setting [10]); in test [5] (setting [11])) were under 1 µM, under 1 µM and over 10 µM, respectively. Also, in test [3], the activity at 10 µM was 50 to 70%.
